Measurements published in patent US12702660B2, “Method for treating cancer with an oral dosage form of an estrogen receptor-alpha inhibitor” (Eisai R&D Management Co., Ltd., priority 2019, dated 2026).
Where two headings read alike, the source gives them in different places.

Experiment: Plasma PK of H3B-6545 capsules in fasted patients, phase 1 dose escalation
Assay type: in vivo, human
Details: for Vd / Vd/F / Tmax / AUC(0-inf) / Cmax / half-life / AUC(0-t): female, human, plasma, oral; for Vd / Vd/F / AUC(0-inf) / Cmax / half-life / AUC(0-t): Geometric Mean (GeoCV %); for Vd: read-out: Vss; for Vd/F: read-out: Vz/F
Protocol: Blood samples were collected at the planned time points from each patient and centrifuged. The plasma portion of each sample was then transferred to a K2EDTA tube, which was then shipped to a bioanalytical lab for concentration measurement using LC-MS/MS. The concentration data were then analyzed using Phoenix® WinNonlin software to obtain PK parameters. The obtained PK parameters were further summarized using analytical software.
Blood samples (approximately 5 mL each) were collected from human patients pre-dose and at various hourly time points post-dose. Plasma concentrations of H3B-6545 were determined using a validated high-performance liquid chromatography/tandem mass spectrometry (LC-MS/MS) method. The lower limit of quantification was 0.100 ng/mL.
The PK Analysis Set included subjects who received H3B-6545 drug product in capsules or tablets and had sufficient evaluable plasma concentration data to derive at least 1 primary PK parameter in each treatment. Plasma concentrations of H3B-6545 (as free base) were tabulated and summarized at each nominal time using descriptive statistics (number of subjects, arithmetic mean with standard deviation [SD], coefficient of variation [CV %], geometric mean, median, minimum, and maximum) as appropriate. Individual and mean (±SD) plasma concentration-time profiles were provided for each treatment.
Pharmacokinetic parameters of H3B-6545 were calculated using noncompartmental methods, using an appropriate model for plasma data and extravascular administration. The PK parameters included, but were not limited to, area under the curve to the time of the last quantifiable concentration (AUC0-t), maximum concentration (Cmax), and time at which the maximum concentration occurred (tmax). If data permitted, the area under the plasma concentration-time curve extrapolated to infinity (AUC0-inf), terminal elimination half-life (t1/2), apparent total body clearance (CL/F), total systemic clearance after oral administration at steady state (CLss/F), apparent volume of distribution during the terminal phase (Vz/F), apparent steady-state volume of distribution (Vss), accumulation ratio for Cmax (RCmax) and accumulation ratio of AUC0-24 (RAUC) were also derived.
Methods were used to analyze whether H3B-6545 inactivates both wild-type and mutant ERα by targeting cysteine 530 and enforcing a unique antagonist conformation. Methods: Women with locally advanced or metastatic HR+BC are treated (tx) with H3B-6545 drug product administered once daily orally by capsule over a 28 day cycle after progression on at least one hormonal therapy and at least one additional therapy/regimen. Dose escalation uses a 3+3 design with the option to backfill previously cleared doses and allows for intrapatient dose escalation. This example explored the safety, pharmacokinetics and pharmacodynamics of H3B-6545 in women with HR+BC to identify a recommended subsequent dose for testing.
• H3B-6545 administered once daily orally over a 28 day cycle. • Dose escalation using a standard 3+3 study design using dose cohorts of 100, 200, 300, 450, and 600 mg QD. • Patients allowed to backfill previously cleared doses. • Intra-patient dose escalation allowed after completion of Cycle 3. Results (as of Apr. 20, 2019) Patient Population: • 46 patients were treated with H3B-6545 at doses of 100 to 600 mg QD. • 42 (91.3%) patients received a prior CDK4/6 inhibitor and 32 (69.6%) prior fulvestrant. • 30 (65.2%) patients received ≥3 prior anti-cancer therapy lines in the advanced/metastatic setting.
The clinical trial of Example 3 was continued and PK evaluations (of this Example 4) were made at a later date on the basis of a larger patient population. The summary of Tables 1 in Analysis of Pharmacokinetic (PK) of Capsules in Fasted Patients and 2 show PK parameters and profiles of human patients receiving capsules of H3B-6545 drug product prepared as in Example 1. […]

[1] = 100 mg, Cycle 1 Day 1, 100 mg QD capsules, fasted patients
[2] = 100 mg, Cycle 1 Day 15, 100 mg QD capsules, fasted patients
[3] = 200 mg, Cycle 1 Day 1, 200 mg QD capsules, fasted patients
[4] = 200 mg, Cycle 1 Day 15, 200 mg QD capsules, fasted patients
[5] = 300 mg, Cycle 1 Day 1, 300 mg QD capsules, fasted patients
[6] = 300 mg, Cycle 1 Day 15, 300 mg QD capsules, fasted patients
[7] = 450 mg, Cycle 1 Day 1, 450 mg QD capsules, fasted patients
[8] = 450 mg, Cycle 1 Day 15, 450 mg QD capsules, fasted patients
[9] = 600 mg, Cycle 1 Day 1, 600 mg QD capsules, fasted patients
[10] = 600 mg, Cycle 1 Day 15, 600 mg QD capsules, fasted patients

CN(C)C(=O)/C=C/CNCCOc1ccc(/C(=C(/CC(F)(F)F)c2ccccc2)c2ccc3[nH]nc(F)c3c2)cn1 [H3B-6545, (E)-N,N-dimethyl-4-[2-[5-[(Z)-4,4,4-trifluoro-1-(3-fluoro-1H-indazol-5-yl)-2-phenylbut-1-enyl]pyridin-2-yl]oxyethylamino]but-2-enamide]
Vd [1]: 713 L
Vd/F [1]: 689 L
Tmax (100 mg, Cycle 1 Day 1, 100 mg QD capsules, fasted patients, Median (Min, Max)): 3.05 h
AUC(0-inf) [2]: 2950 ng·h/mL
Cmax [2]: 287 ng/mL
half-life [2]: 11.5 h
AUC(0-t) (100 mg, Cycle 1 Day 15, 100 mg QD capsules, fasted patients, read-out: AUC0-24): 2560 ng·h/mL
AUC(0-t) (100 mg, Cycle 1 Day 15, 100 mg QD capsules, fasted patients, read-out: AUC0-t): 2590 ng·h/mL
Vd [2]: 679 L
Vd/F [2]: 731 L
Tmax (100 mg, Cycle 1 Day 15, 100 mg QD capsules, fasted patients, Median (Min, Max)): 2 h
AUC(0-inf) [3]: 5270 ng·h/mL
Cmax [3]: 473 ng/mL
half-life [3]: 9.73 h
AUC(0-t) (200 mg, Cycle 1 Day 1, 200 mg QD capsules, fasted patients, read-out: AUC0-24): 4760 ng·h/mL
AUC(0-t) (200 mg, Cycle 1 Day 1, 200 mg QD capsules, fasted patients, read-out: AUC0-t): 4810 ng·h/mL
Vd [3]: 567 L
Vd/F [3]: 532 L
Tmax (200 mg, Cycle 1 Day 1, 200 mg QD capsules, fasted patients, Median (Min, Max)): 5 h
AUC(0-inf) [4]: 7950 ng·h/mL
Cmax [4]: 605 ng/mL
half-life [4]: 10.1 h
AUC(0-t) (200 mg, Cycle 1 Day 15, 200 mg QD capsules, fasted patients, read-out: AUC0-24): 6870 ng·h/mL
AUC(0-t) (200 mg, Cycle 1 Day 15, 200 mg QD capsules, fasted patients, read-out: AUC0-t): 6910 ng·h/mL
Vd [4]: 456 L
Vd/F [4]: 455 L
Tmax (200 mg, Cycle 1 Day 15, 200 mg QD capsules, fasted patients, Median (Min, Max)): 2.17 h
AUC(0-inf) [5]: 11100 ng·h/mL
Cmax [5]: 898 ng/mL
half-life [5]: 9.58 h
AUC(0-t) (300 mg, Cycle 1 Day 1, 300 mg QD capsules, fasted patients, read-out: AUC0-24): 9480 ng·h/mL
AUC(0-t) (300 mg, Cycle 1 Day 1, 300 mg QD capsules, fasted patients, read-out: AUC0-t): 9520 ng·h/mL
Vd [5]: 416 L
Vd/F [5]: 374 L
Tmax (300 mg, Cycle 1 Day 1, 300 mg QD capsules, fasted patients, Median (Min, Max)): 4 h
AUC(0-inf) [6]: 12700 ng·h/mL
Cmax [6]: 1200 ng/mL
half-life [6]: 8.52 h
AUC(0-t) (300 mg, Cycle 1 Day 15, 300 mg QD capsules, fasted patients, read-out: AUC0-24): 12000 ng·h/mL
AUC(0-t) (300 mg, Cycle 1 Day 15, 300 mg QD capsules, fasted patients, read-out: AUC0-t): 12100 ng·h/mL
Vd [6]: 373 L
Vd/F [6]: 348 L
Tmax (300 mg, Cycle 1 Day 15, 300 mg QD capsules, fasted patients, Median (Min, Max)): 4 h
AUC(0-inf) [7]: 23000 ng·h/mL
Cmax [7]: 1500 ng/mL
half-life [7]: 11 h
AUC(0-t) (450 mg, Cycle 1 Day 1, 450 mg QD capsules, fasted patients, read-out: AUC0-24): 16200 ng·h/mL
AUC(0-t) (450 mg, Cycle 1 Day 1, 450 mg QD capsules, fasted patients, read-out: AUC0-t): 16200 ng·h/mL
Vd [7]: 343 L
Vd/F [7]: 311 L
Tmax (450 mg, Cycle 1 Day 1, 450 mg QD capsules, fasted patients, Median (Min, Max)): 4 h
AUC(0-inf) [8]: 17400 ng·h/mL
Cmax [8]: 1420 ng/mL
half-life [8]: 9.81 h
AUC(0-t) (450 mg, Cycle 1 Day 15, 450 mg QD capsules, fasted patients, read-out: AUC0-24): 14000 ng·h/mL
AUC(0-t) (450 mg, Cycle 1 Day 15, 450 mg QD capsules, fasted patients, read-out: AUC0-t): 14100 ng·h/mL
Vd [8]: 489 L
Vd/F [8]: 466 L
Tmax (450 mg, Cycle 1 Day 15, 450 mg QD capsules, fasted patients, Median (Min, Max)): 4 h
AUC(0-inf) [9]: 32900 ng·h/mL
Cmax [9]: 2050 ng/mL
half-life [9]: 13.1 h
AUC(0-t) (600 mg, Cycle 1 Day 1, 600 mg QD capsules, fasted patients, read-out: AUC0-24): 22400 ng·h/mL
AUC(0-t) (600 mg, Cycle 1 Day 1, 600 mg QD capsules, fasted patients, read-out: AUC0-t): 22300 ng·h/mL
Vd [9]: 366 L
Vd/F [9]: 344 L
Tmax (600 mg, Cycle 1 Day 1, 600 mg QD capsules, fasted patients, Median (Min, Max)): 4 h
AUC(0-inf) [10]: 39700 ng·h/mL
Cmax [10]: 1680 ng/mL
half-life [10]: 21.8 h
AUC(0-t) (600 mg, Cycle 1 Day 15, 600 mg QD capsules, fasted patients, read-out: AUC0-24): 18400 ng·h/mL
AUC(0-t) (600 mg, Cycle 1 Day 15, 600 mg QD capsules, fasted patients, read-out: AUC0-t): 18700 ng·h/mL
Vd [10]: 1100 L
Vd/F [10]: 1030 L
Tmax (600 mg, Cycle 1 Day 15, 600 mg QD capsules, fasted patients, Median (Min, Max)): 4 h
Tmax (as of 10 Dec. 2018, 100 to 450 mg/day capsules): 2 to 4 h
Tmax (as of Apr. 20, 2019, 100 to 600 mg QD): 2 to 4 h
plasma concentration, C1D1 versus C1D15 (once daily dosing): similar
